Results published in US20200179327A1, “USE OF PHENOLIC COMPOUNDS FROM OLEA EUROPAEA” (McCord Research, Inc., priority 2017, published 2020).

Assays:
[1] = system: peripheral blood mononuclear cells (PBMC); test: Cell viability/proliferation, Cell-Titer Blue, PBMC; format: cell-based, human; conditions: 0-800 μM, 24, 48 or 72 hours
Method: (§1) Human peripheral blood mononuclear cells (PBMCs) were fractionated using the Ficoll Plaque fractionation method from whole blood obtained from the Australian Red Cross Blood Bank (ARCB) under ethic approval (#304/12). Cells were harvested fresh on the day of the experiments and maintained in complete-RPMI-1640 medium supplemented with 10% FBS, 2 mM L-glutamine and 20 μg/mL gentamicin at 37° C., 5% (v/v) CO2. Human aortic endothelial cells (HAECs, ATCC) and the equivalent cells taken for patients with Type II diabetes (DII-HAECs, ATCC) were cultured in endothelial cell growth medium (ECM) supplemented with 100 U/ml penicillin, 100 μg/ml streptomycin, 0.25 μg/ml fungizone, 2 mM L-glutamine, 5 U/ml heparin, 30-50 μg/ml endothelial cell growth supplement (Technoclone, Vienna, Austria). All cells were passaged by typsination and seeded into 6 well culture dishes at cell densities of 1×10^6 cells per well; at 37° C., 5% (v/v) CO2. […] Cell viability was measured using the Cell-Titer Blue® Assay kit (Promega, Madison, Wis., USA) according to the manufacturer's instructions. Cell-Titer Blue reagent was added to each well and incubated for 4 hours at 37° C., 5% CO2, before reading fluorescence intensity (550 nm excitation; 615 nm emission) using the CLARIOstar (BMG LABTECH, Offenburg, Germany) microplate reader. […]

[2] = system: primary human aortic endothelial cells from a healthy patient (h-HAEC); test: Cell viability/proliferation, Cell-Titer Blue, h-HAEC; format: cell-based; conditions: 0-800 μM, 24, 48 or 72 hours
Method: as §1

COX-2 [3] = target: T1, COX-2 (Homo sapiens, UniProt P35354); test: COX-1/2 inhibitor screening kit (BioVision), COX-2; format: biochemical; conditions: 10-dose, 2-fold dilution from 1000 μM; read-out: COX-2 inhibition IC50
T1 construct: purchased BioVision
T1 sequence (P35354 18-604): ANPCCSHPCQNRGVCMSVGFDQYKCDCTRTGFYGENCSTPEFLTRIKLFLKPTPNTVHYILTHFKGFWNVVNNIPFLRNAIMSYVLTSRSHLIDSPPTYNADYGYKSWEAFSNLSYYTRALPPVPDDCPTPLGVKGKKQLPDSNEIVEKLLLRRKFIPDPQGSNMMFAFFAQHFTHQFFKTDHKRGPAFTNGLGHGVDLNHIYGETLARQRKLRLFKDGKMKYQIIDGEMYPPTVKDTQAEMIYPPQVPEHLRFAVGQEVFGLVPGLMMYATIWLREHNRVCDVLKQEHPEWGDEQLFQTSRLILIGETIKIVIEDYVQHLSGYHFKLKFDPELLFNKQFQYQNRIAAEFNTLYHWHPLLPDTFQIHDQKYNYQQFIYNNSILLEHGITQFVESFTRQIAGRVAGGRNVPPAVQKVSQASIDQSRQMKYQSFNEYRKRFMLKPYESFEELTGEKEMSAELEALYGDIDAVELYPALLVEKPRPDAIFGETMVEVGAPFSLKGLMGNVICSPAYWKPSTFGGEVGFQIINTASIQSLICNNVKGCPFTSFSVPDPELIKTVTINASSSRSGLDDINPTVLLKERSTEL
Method: (§2) Inhibition of individual COX-1 and COX-2 enzymes by MMBHTE and oleocanthal was measured using the COX-1/2 inhibitor screening kit (BioVision, Milpatas, Calif., USA), according to the manufacturer's instructions. […] The production of prostaglandin G2, the intermediate product generated by the COX enzyme in the presence of arachidonic acid is measured by coupling with HRP and COX substrate and fluorescence was measured using the CLARIOstar microplate reader at Ex/Em=535/587 nm. Data is represented at the percentage of COX enzymatic activity inhibition relative to the log of the compound and a curve fit for the control compound. Corresponding IC50 values were calculated.
(§3) FIG. 6A and FIG. 6B show the inhibition activities of MMBHTE and Oleocanthal on COX-1 and COX-2, respectively. The data shown in FIG. 6A and FIG. 6B indicates all the test samples fell within the detectable range. The data shown in FIG. 6A and FIG. 6B is represented as the percentage of COX enzymatic activity inhibition relative to the log of the concentrations and best-fit curves for MMBHTE and Oleocanthal. Corresponding IC50 values were calculated. […] Therefore, MMBHTE is a […] COX-1 and COX-2 inhibitor.

[4] = system: human aortic endothelial cells from patient with Type II diabetes (DII-HAEC); test: Cell viability/proliferation, Cell-Titer Blue, DII-HAEC; format: cell-based; conditions: 0-800 μM, 24, 48 or 72 hours
Method: as §1

[5] = target: T2, lysine-specific demethylase 1 (LSD1) (Homo sapiens, UniProt O60341); test: EpiQuik Histone Demethylase LSD1 inhibitor screening assay; format: biochemical; conditions: 10-dose, 2-fold dilution from 200 μM; read-out: LSD1 enzyme activity inhibition IC50
T2 construct: purchased EpiGentek

[6] = system: primary skin fibroblasts (BJ); test: Cell viability/proliferation, Cell-Titer Blue, BJ; format: cell-based, human; conditions: 0-800 μM, 24, 48 or 72 hours
[7] = target: T3, monoamine oxidase A (MAO-A) (Homo sapiens, UniProt P21397); test: Monoamine Oxidase A (MAO-A) Inhibitor Screening Kit; format: biochemical; conditions: 10-dose, 2-fold dilution from 100 μM; substrate tyramine; read-out: MAO-A inhibition IC50
T3 construct: purchased Sigma-Aldrich
T3 sequence (P21397 1-527): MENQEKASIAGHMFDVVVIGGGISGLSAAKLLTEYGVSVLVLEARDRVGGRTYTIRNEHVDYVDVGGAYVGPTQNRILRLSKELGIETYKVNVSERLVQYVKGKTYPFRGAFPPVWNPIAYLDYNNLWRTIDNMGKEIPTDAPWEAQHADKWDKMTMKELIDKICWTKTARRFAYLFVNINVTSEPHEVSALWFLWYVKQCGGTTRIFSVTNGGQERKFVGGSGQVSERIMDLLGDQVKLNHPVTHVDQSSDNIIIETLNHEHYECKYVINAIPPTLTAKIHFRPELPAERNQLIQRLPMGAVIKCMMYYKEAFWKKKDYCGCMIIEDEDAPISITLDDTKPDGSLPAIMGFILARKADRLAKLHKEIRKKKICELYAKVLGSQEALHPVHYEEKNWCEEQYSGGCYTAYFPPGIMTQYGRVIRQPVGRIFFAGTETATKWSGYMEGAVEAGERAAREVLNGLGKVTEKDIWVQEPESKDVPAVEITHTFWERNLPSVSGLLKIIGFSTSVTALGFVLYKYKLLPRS
Method: The production of H2O2 generated by the oxidative deamination of the MAO substrate tyramine was measured fluorometrically using the CLARIOstar microplate reader at Ex/Em=535/587 nm. Data is represented as the percentage of MAO enzymatic activity inhibition relative to the log of the compound and a curve fit for the control compound. Corresponding IC50 values were calculated.

COX-1 [8] = target: T4, COX-1 (Ovis aries, UniProt P05979); test: COX-1/2 inhibitor screening kit (BioVision), COX-1; format: biochemical; conditions: 10-dose, 2-fold dilution from 1000 μM; read-out: COX-1 inhibition IC50
T4 construct: purchased BioVision
T4 sequence (P05979 25-600): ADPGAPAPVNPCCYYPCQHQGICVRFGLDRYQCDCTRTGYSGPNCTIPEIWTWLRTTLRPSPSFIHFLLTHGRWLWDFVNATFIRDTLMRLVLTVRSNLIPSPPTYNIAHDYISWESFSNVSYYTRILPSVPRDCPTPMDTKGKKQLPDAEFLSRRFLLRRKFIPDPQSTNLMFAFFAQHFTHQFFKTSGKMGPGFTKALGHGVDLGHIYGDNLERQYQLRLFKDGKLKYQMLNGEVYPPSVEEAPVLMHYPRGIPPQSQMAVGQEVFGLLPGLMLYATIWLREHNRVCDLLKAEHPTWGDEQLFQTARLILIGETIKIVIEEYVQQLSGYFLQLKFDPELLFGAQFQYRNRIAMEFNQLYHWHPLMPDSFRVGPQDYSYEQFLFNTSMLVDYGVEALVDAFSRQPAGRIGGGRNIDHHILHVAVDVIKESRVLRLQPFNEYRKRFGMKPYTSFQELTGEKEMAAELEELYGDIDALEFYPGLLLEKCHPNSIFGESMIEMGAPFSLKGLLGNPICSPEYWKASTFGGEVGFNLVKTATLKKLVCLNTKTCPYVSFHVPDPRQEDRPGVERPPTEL
Method: as §2, §3

lipoxygenase = conditions: in vitro; cited from earlier work
COX-2 [9] = target: T1, COX-2; conditions: in vitro; cited from earlier work
COX-1 [10] = target: COX-1 (Homo sapiens, UniProt P23219); conditions: in vitro; cited from earlier work
Sequence of COX-1 (Homo sapiens, UniProt P23219) (P23219 24-599): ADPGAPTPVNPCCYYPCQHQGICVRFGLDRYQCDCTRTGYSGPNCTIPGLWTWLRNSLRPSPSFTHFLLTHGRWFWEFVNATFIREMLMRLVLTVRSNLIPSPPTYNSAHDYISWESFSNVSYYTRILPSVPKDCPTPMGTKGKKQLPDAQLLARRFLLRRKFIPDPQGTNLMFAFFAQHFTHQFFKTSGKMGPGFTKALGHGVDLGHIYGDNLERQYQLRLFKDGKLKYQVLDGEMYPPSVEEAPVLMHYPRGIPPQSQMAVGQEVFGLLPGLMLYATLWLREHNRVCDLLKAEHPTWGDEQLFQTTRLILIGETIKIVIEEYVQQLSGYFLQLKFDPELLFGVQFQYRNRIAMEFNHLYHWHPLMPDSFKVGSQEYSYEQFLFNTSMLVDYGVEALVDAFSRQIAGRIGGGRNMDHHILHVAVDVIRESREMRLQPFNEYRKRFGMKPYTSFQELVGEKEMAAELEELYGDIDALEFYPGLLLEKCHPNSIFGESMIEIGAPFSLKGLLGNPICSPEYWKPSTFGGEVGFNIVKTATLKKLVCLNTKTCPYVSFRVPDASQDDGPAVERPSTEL

IC50 (COX-2 [3]) [nM] | IC50 [5] [nM] | IC50 [7] [nM] | IC50 (COX-1 [8]) [nM] | SMILES | toxicity profile (cell viability) [1] | toxicity profile (cell viability) [2] | toxicity profile (cell viability) [4] | toxicity profile (cell viability) [6] | effect on lipoxygenase (lipoxygenase) | inhibition of COX-2 (COX-2 [9]) | inhibition of COX-1 (COX-1 [10])
81600 ± 7700 | 11.9 | 443 ± 158 | 1720 ± 90 | COC(=O)[C@H](O)CC(=O)OCCc1ccc(O)c(O)c1 (stereo in doubt) [MMBHTE, methyl malate-β-hydroxytyrosol ester] | very favorable toxicity profile | very favorable toxicity profile | very favorable toxicity profile | very favorable toxicity profile |  |  | 
 | 21.8 | 39100 ± 31500 |  | OCCc1ccc(O)c(O)c1 [HT, hydroxytyrosol, reference compound] |  |  |  |  |  |  | 
352000 ± 7700 |  |  | 430 ± 50 | C/C=C(/C=O)[C@@H](CC=O)CC(=O)OCCc1ccc(O)cc1 [Oleocanthal] |  |  |  |  | no effect | dose-dependent inhibitor | dose-dependent inhibitor
